Experimental data from patent US9649305B2, “PFKFB3 inhibitor and methods of use as an anti-cancer therapeutic” (ADVANCED CANCER THERAPEUTICS, LLC, priority 2012, dated 2017).
Like-named read-outs stand apart in the source and are kept apart here.

Assays:
[1] = In vitro stability in human liver microsomes; type: in vitro ADME
[2] = IV pharmacokinetics in mice; type: in vivo, Balbc mice
Method: (§1) The pharmacokinetic (PK) parameters for PFK-158 were determined in mice following IV (intravenous) administration in mice and rats. A typical study design includes six animals (male or female) 7 to 8 weeks old.
(§2) Mouse pharmacokinetic properties using a dose of 5 mg/kg were determined after IV administration using a 10% DMSO, 10% PEG-200, 10% Solutol:ethanol (1:1) and 70% D5W solution or any other pharmaceutically acceptable parenteral formulation. Blood samples were collected at different intervals. Plasma samples were extracted and analyzed using an LC-MS/MS method. Similar protocols were used for the rat PK study (Sprague Dawley rats; 30 mg/kg), although the formulation for rat PK studies differed (30% Captisol, pH 3.0 solution). Time vs. plasma concentration plots were prepared as shown in FIGS. 4 (BalbC mice) and 5 (SD rats), respectively. Pharmacokinetic parameters were calculated and are provided below in Table 7.

[3] = tested on: Jurkat cell line (leukemia cell line); test: Toxicity / cell growth of Jurkat cell line; type: cell-based; settings: Homo sapiens
Method: The ability of PFK-158 to kill or inhibit the proliferation of cancer cells was measured using either the MTT assay, the alamarBlue® assay (Invitrogen, Grand Island, N.Y.), or the CellTiter Glo™ assay (Promega, Madison, Wis.) using 48 or 72 hours exposure.
Cells of the desired tumor cell line were plated at 2×10^5 cells/ml in 96 well plates. Twice the indicated concentrations of the compounds of the invention were added to cells the following day in an equal volume of media. 72 hours later, cells were lysed and subjected to ATP determination using the CellTiter-Glo™ Luminescent Cell Viability Assay kit. Experiments were performed in triplicate. When using the MTT assay or the alamarBlue® assay, the experimental conditions are essentially similar; at the end of the incubation period, 20 microliters of the MTT solution is added per well and the samples are incubated for an additional four hours, rinsed, and absorbance at 570 nm was measured. Results for the inhibition of cell proliferation are reported as the IC50 (the concentration resulting in 50% inhibition of proliferation of the cell population) and are listed in Table 5 below. Cell lines include lung, colon, prostate, breast, ovarian, and pancreatic cancer lines.

[4] = tested on: lung cancer model, pancreatic cancer model, colon cancer model; test: Tumor growth inhibition in mouse cancer models
Method: Studies determining efficacy of PFK-158 at inhibiting tumor growth in mouse cancer models were performed. These studies were carried out with PFK-158 alone and in combination with compounds currently used in the treatment of cancer patients. Studies were performed in a lung cancer model, a pancreatic cancer model, and in a colon cancer model.
Efficacy of PFK-158 was studied in vivo in tumor models. Several tumor models were used in these studies (the Lewis lung carcinoma, or LLC model, the CT-26 colon carcinoma tumor model, or the BXPC3 pancreatic cancer model). The experimental protocol for the LLC study is described below. Subsequent to subcutaneous inoculation of tumor cells, tumors started to develop and once tumors reached the desired volume of 100-125 mm^3 on average, treatment was initiated. Tumor volume was monitored in both groups and the average for both the control and treatment groups was measured three times a week, as well as body weights.
Briefly, normal female C57BL/6 mice at 7-8 weeks of age were used for the study. Mice were housed in microisolator housing, with food and water provided as libitum, and quarantined for 4 days prior to the initiation of the study. LLC cells were maintained in a monolayer culture in DMEM medium supplemented with 10% heat inactivated fetal calf serum, 100 U/ml penicillin and 100 μg/ml streptomycin, and L-glutamine (2 mM) at 37° C. in an atmosphere of 5% CO2 in air. The tumor cells were routinely sub-cultured twice a week. The cells growing in an exponential phase were harvested and counted for tumor inoculation. Each mouse was inoculated subcutaneously at the right flank with the LLC tumor cells (3×10^5) in 0.1 ml of PBS for tumor development. When athymic nude mice were used, as for the BxPC3 model, then the strain of mice is slightly different. Furthermore, the use of Matrigel supports tumor development, meaning that cells are suspended in 100 μl of a mixture of medium/Matrigel (1:1) and are then subcutaneously implanted in the right flank region. Animals were monitored for tumor growth daily after cell implantation. When tumor volumes reached approximately 100-125 mm^3, mice were randomized into groups of 8 mice each using only mice having tumor volumes closest to the mean value. Tumor volumes were measured using the formula V=L×W×H×π/6, where L and W represent the longer and shorter diameters of the tumor and H represents the height of the tumor. Treatment began following randomization. PFK-158 was administered IP at a dose of 60 mg/kg on days 1, 3, 5, 7, 9, 11, and 13.
Similar protocols were used for the other studies using different models; differences included the use of Balbc/nude mice; administering larger number of cancer cells; and use of Matrigel.

PFKFB3 = PFKFB3 (Homo sapiens, UniProt Q16875); test: Enzymatic activity of PFKFB3 in cells (F2,6BP levels, Van Schaftingen method); type: cell-based; set-up: endogenous in cells; host or cells: Jurkat cells
Method: Inhibition of PFKFB3 can also be measured in cells by measuring fructose-2,6-biphosphate levels according to the Van Schaftingen method (Eur. J. of Biochem, 129: 191 (1982)). This method enables measurement of the inhibition in a cellular environment, a model more relevant than the pure recombinant protein. Briefly, Jurkat cells were plated at 1×10^5 cells/mL and incubated with different concentrations of PFK-158 for 3 hours. Samples were collected and cells were lysed. Extracts were characterized as described in previous reports and normalized to protein concentration.

[5] = IV pharmacokinetics in rats, 30 mg/kg; type: in vivo; settings: Table 7, Rat (30 mg/kg), Sprague Dawley rats
Method: as §1, §2

[6] = Photoisomerization in formulation; type: physicochemical; settings: phospho-lipidic aqueous emulsion or emulsifier-free, solvent-free aqueous solution
Text: Further, the solubility properties of PFK-158 are such that, if required, the compound can be administered using either a phospho-lipidic aqueous based emulsion, or in an emulsifier-free, solvent-free aqueous based solution.

[7] = Table 7, Mouse (5 mg/kg), IV, Balbc mice
[8] = mouse, plasma, 5 mg/kg, Table 2, Balbc mice, IV dosing

PFKFB3, sequence (Q16875 whole entry): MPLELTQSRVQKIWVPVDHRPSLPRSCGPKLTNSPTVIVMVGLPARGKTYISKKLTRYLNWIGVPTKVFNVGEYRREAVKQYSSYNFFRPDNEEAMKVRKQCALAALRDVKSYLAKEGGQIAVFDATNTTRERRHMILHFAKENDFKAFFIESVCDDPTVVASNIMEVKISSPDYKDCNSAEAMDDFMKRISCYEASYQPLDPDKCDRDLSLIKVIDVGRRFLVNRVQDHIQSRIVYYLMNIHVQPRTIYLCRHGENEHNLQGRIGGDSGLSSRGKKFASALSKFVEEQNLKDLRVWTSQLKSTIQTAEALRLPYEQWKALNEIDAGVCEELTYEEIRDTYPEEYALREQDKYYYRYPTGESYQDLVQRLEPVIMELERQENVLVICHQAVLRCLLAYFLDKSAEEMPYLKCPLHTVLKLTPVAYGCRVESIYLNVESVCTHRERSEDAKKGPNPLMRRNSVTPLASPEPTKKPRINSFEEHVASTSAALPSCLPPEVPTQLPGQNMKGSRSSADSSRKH

O=C(/C=C/c1ccc2ccc(C(F)(F)F)cc2n1)c1ccncc1 [PFK-158, (E)-1-(pyridyn-4-yl)-3-(7-(trifluoromethyl)quinolin-2-yl)-prop-2-en-1-one]
Percent metabolized after 1 hr [1]: 37%
AUC(0-inf) [2, 7]: 3,235 ng · h/ml
Cmax [2, 7]: 4,176 ng/mL
T1/2b [2, 7]: 10.4 h
AUC(0-inf) ([2]; Table 9, BalbC mice, IV dosing): 3235 ng·h/mL
T1/2 ([2]; Table 9, BalbC mice, IV dosing): 10.5 h
clearance [2, 8]: 26 mL/min/kg
half-life [2, 8]: 10.5 h
AUC(0-inf) ([2]; mouse, plasma, 5 mg/kg, Table 2, Balbc mice, IV dosing, read-out: AUC0-inf): 3240 ng·h/mL
Cmax ([2]; mouse, plasma, 5 mg/kg, Table 2, Balbc mice, IV dosing, read-out: Cmax): 4180 ng/mL
IC50 ([3]; Jurkat, Table 1, read-out: IC50, toxicity of Jurkat cell line (leukemia cell line)): 330 ± 100 nM
IC50 ([3]; Table 6, Jurkat cells, read-out: IC50 Cell Growth): 328 ± 15 nM
tumor growth inhibition ([4]; lung, pancreatic and colon cancer mouse models): 50% to 70
body weight loss ([4]; mouse, in vivo): without noticeable body weight loss or death
effect of combination with other chemotherapeutic agents ([4]; tumor models, FIGS. 6-8): additive or synergistic effect
IC50 (PFKFB3; FIG. 3, Jurkat cells, 3 hours, read-out: IC50, PFKFB3 in cells by fructose-2,6-biphosphate levels): 1600 ± 800 nM
IC50 (PFKFB3; Table 1, F2,6BP levels, Jurkat cells, read-out: IC50, Enzymatic activity of PFKFB3 in cells): 1600 ± 800 nM
IC50 (PFKFB3; Table 6, Jurkat cells, read-out: IC50 Cellular PFKFB3 (F2,6BP)): 1620 ± 400 nM
IC50 (PFKFB3; Table 8, read-out: IC50, Enzymatic activity of PFKFB3 in cells): 1600 ± 800 nM
T1/2b [5]: 8.6 h
AUC(0-inf) ([5]; plasma): 3300 ng·h/mL
Cmax ([5]; plasma): 18900 ng/mL
photoisomerization in solution [6]: does not, in the formulation mentioned above, undergo a rapid photoisomerization
